Assays:
Assay type in all cases: in vivo, human
[1] = Pooled BLOOM and BLOSSOM Phase 3 studies: Week 52 outcomes by Week 12/Week 24 responder status, patients without T2DM
Method: APD356-009 (“BLOOM”) was a 104-week, placebo controlled study that assessed the safety and efficacy of lorcaserin 10 mg BID in overweight and obese patients, with concurrent behavior modification. The primary efficacy objective during Year 1 was to evaluate weight loss; the primary objective during Year 2 was to assess the ability of lorcaserin to maintain body weight loss that was achieved during Year 1. At study start, each patient received randomized, double blind treatment assignments for Year 1 and for Year 2 (all patients were given a new randomization number for Year 2 to assure that patients and study personnel remained blinded to treatment assignments). All patients assigned to placebo during Year 1 (50% of randomized population) remained on placebo in Year 2. Patients assigned to lorcaserin during Year 1 were randomly assigned to stay on lorcaserin during Year 2 (⅔ of Year 1 lorcaserin patients) or to switch to placebo (⅓ of Year 1 lorcaserin patients).
APD356-011 (“BLOSSOM”) was a 52-week, placebo controlled study that evaluated the effect of two lorcaserin doses (10 mg BID and 10 mg QD) on categorical and total weight loss with concurrent behavior modification. Patients were randomized in a ratio of 2:1:2 to lorcaserin 10 mg BID, 10 mg QD, or placebo.
(§1) An analysis of early weight loss was performed, at each visit after baseline through Week 24, as a predictor of ultimate weight loss success, as defined by achieving at least about 5% weight loss at 52 weeks, or at least about 10% weight loss at 52 weeks.

[2] = Pooled patients with impaired fasting glucose (IFG) who were Week 12 responders: Week 52 outcomes
Method: (§2) Tables 6 and 7, below, present weight loss, vital sign, and glycemic changes at Week 52 in pooled patients without diabetes, patients with T2DM, and pooled patients with impaired fasting glucose (IFG; ≧100 mg/dL) who were Week 12 responders.

[3] = BLOOM-DM (APD356-010) Phase 3 study: Week 52 outcomes by Week 12/Week 24 responder status, patients with type 2 diabetes mellitus
Method: APD356-010 (BLOOM-DM) was a 52-week, placebo controlled study that evaluated the effect of two lorcaserin doses (10 mg BID and 10 mg QD) on categorical and total weight loss with concurrent behavior modification in 604 patients with type 2 diabetes mellitus managed with oral hypoglycemic agents. Randomization to the 10 mg once daily group was halted by protocol amendment in order to accelerate enrollment, resulting in final group sizes of 253 (placebo), 95 (lorcaserin QD) and 256 (lorcaserin BID).
as §1
Table 3 and Table 4 provide the sensitivity, specificity, positive predicted value (PPV) and negative predictive value (NPV) at Weeks 12 and 24 for at least about 5% and at least about 10% weight loss at Week 52 in different studies. The rounded percent weight loss at Week 12 for at least 5% and at least about 10% weight loss at Week 52 are about 5% and about 6%, respectively. Using the about 6% weight loss at Week 12 as a criterion enhances the PPV for both about 5% and about 10% categorical weight loss at Week 52, but at the expense of excluding about 10% and about 4% more of the about 5% categorical responders at Week 52 in patients without and with diabetes, respectively, based upon NPV. The rounded optimal thresholds at Week 24 for at least about 5% and at least about 10% weight loss at Week 52 are about 6% and about 9%, respectively. Using the 9% weight loss criterion at Week 24 enhances the PPV for both about 5% and about 10% categorical weight loss at Week 52, but at the expense of excluding about 19% and about 9% more of the about 5% categorical responders at Week 52 in patients without and with diabetes, respectively, based upon NPV. As described below, if at least about a 5% weight loss criterion is applied, patients achieving this milestone will achieve an average of about 10.8% weight loss in patients without diabetes and about 9.1% weight loss in patients with diabetes at Week 52.
as §2

[4] = Week 12 Responder (≧5% weight loss), MITT with LOCF, 10 mg BID
[5] = Week 12 responders without diabetes
[6] = Week 12 responders, patients without T2DM, 10 mg BID
[7] = all patients without T2DM, MITT-LOCF
[8] = percent change from baseline at Week 52, Week 12 responders, patients without T2DM, 10 mg BID
[9] = Week 12 responders with impaired fasting glucose (IFG) at baseline
[10] = Week 12 responders, patients with IFG, 10 mg BID
[11] = percent change from baseline at Week 52, Week 12 responders, patients with IFG, 10 mg BID
[12] = Week 12 responders, patients with T2DM, 10 mg BID
[13] = all patients with T2DM, MITT-LOCF
[14] = percent change from baseline at Week 52, Week 12 responders, patients with T2DM, 10 mg BID

## (R)-8-chloro-1-methyl-2,3,4,5-tetrahydro-1H-3-benzazepine hydrochloride salt hemihydrate [drug]
[1]; [4]
  Week 52 Weight 5% Responder: 86%
  Week 52 Weight 10% Responder: 50%
[1]; [5]
  Week 52 reduction in diastolic blood pressure: 2.5 mmHg
  Week 52 reduction in heart rate: 2.5 BPM
  Week 52 reduction in systolic blood pressure: 3.4 mmHg
[1]; [6]
  A1C W52 Change: −0.18%
  DBP W52 Change: −2.5 mmHg
  FPG W52 Change: -2.2 mg/dL
  Heart Rate W52 Change: −2.5 bpm
  SBP W52 Change: −3.4 mmHg
  Weight Loss ≧5% (%) at W52: 85.5%
  Weight Loss ≧10% (%) at W52: 49.8%
[1]; [7]
  proportion achieving ≧5% weight loss at Week 52: 47%
  weight loss at Week 52: 5.8 kg
[1]; of patients with observed Week 12 data, without diabetes, 10 mg BID
  Week 12 Responder (at least 5% weight loss at Week 12), percentage of patients: 49.3%
[1]; [8]
  HDL-C (mg/dL)* W52 Change: 4.6%
  LDL-C (mg/dL)* W52 Change: 1.1%
  Total Cholesterol (mg/dL)* W52 Change: −1.7%
  Triglycerides (mg/dL)* W52 Change: −14.5%
[2]; [9]
  Week 52 reduction in A1C: 0.4%
  Week 52 reduction in FPG: 7.8 mg/dL
[2]; [10]
  A1C W52 Change: −0.11%
  DBP W52 Change: −1.5 mmHg
  FPG W52 Change: -7.8 mg/dL
  Heart Rate W52 Change: −3.7 bpm
  SBP W52 Change: −1.7 mmHg
  Weight Loss ≧5% (%) at W52: 88.8%
  Weight Loss ≧10% (%) at W52: 52.4%
  Weight W52 Change: -11.2 kg
[2]; [11]
  HDL-C (mg/dL)* W52 Change: 2.1%
  LDL-C (mg/dL)* W52 Change: 2.5%
  Total Cholesterol (mg/dL)* W52 Change: −2.3%
  Triglycerides (mg/dL)* W52 Change: −15.5%
[3]; [4]
  Week 52 Weight 5% Responder: 71%
  Week 52 Weight 10% Responder: 36%
[3]; Week 12 responders with T2DM
  Week 52 reduction in diastolic blood pressure: 1.9 mmHg
  Week 52 reduction in heart rate: 3.2 BPM
  Week 52 reduction in systolic blood pressure: 2.6 mmHg
[3]; [12]
  A1C W52 Change: −1.2%
  DBP W52 Change: −1.9 mmHg
  FPG W52 Change: -29.3 mg/dL
  Heart Rate W52 Change: −3.2 bpm
  SBP W52 Change: −2.6 mmHg
  Weight Loss ≧5% (%) at W52: 70.5%
  Weight Loss ≧10% (%) at W52: 35.9%
  Weight W52 Change: -9.3 kg
[3]; [13]
  proportion achieving ≧5% weight loss at Week 52: 38%
  weight loss at Week 52: 4.7 kg
[3]; diabetic Week 12 responders
  Week 52 reduction in A1C: 1.2%
  Week 52 reduction in FPG: 29.3 mg/dL
[3]; of patients with observed Week 12 data, type 2 diabetes, 10 mg BID
  Week 12 Responder (at least 5% weight loss at Week 12), percentage of patients: 35.9%
[3]; [14]
  HDL-C (mg/dL)* W52 Change: 8.8%
  LDL-C (mg/dL)* W52 Change: 1.4%
  Total Cholesterol (mg/dL)* W52 Change: −0.7%
  Triglycerides (mg/dL)* W52 Change: −17.8%
